Experimental data: patent publication EP4289421A1, “COMBINATION OF PALMITOYLETHANOLAMIDE (PEA) AND MELATONIN FOR THE TREATMENT OF MAST CELL HYPER-REACTIVITY” (Erbozeta S.p.A., priority 2022, dated 2023)

Test system: human mast cell line (HMC-1.1)
Assay: Release of pro-pain and pro-inflammatory mediators (degranulation) by activated human mast cells
Assay type: cell-based
Conditions: HMC-1.1 activated by compound 48/80 or substance P; substances added individually or combined
Experimental: A human mast cell line (HMC-1.1) was activated both by compound 48/80 (a potent synthetic stimulant, available from Sigma-Aldrich) and by substance P (potent physiological stimulant, CAS number 33507-63-0). The release of pro-pain and pro-inflammatory mediators, such as histamine, TNF-α and IL-6, was then measured in the absence of PEA and melatonin, in the presence of PEA or melatonin alone as well as in the presence of PEA + melatonin. The use of mast cells of human origin, compared to classic murine mast cells, has allowed to measure, with high reliability, the release not only of histamine but also of protein mediators such as TNF-α and IL-6. The in vitro analysis then made it possible to evaluate the effects of the combination at the mast cell level in a highly specific and precise manner. A direct study on a biological organism, ultimately humans, would have been insensitive as the variation of pro-pain and pro-inflammatory mediators, detected in the blood or in any body fluid, would have depended on an action of PEA and melatonin on various cell types, and not exclusively on mast cells.

Row | SMILES | reduction in the release of mast cell mediators (histamine, TNF-α, IL-6)
1 | CCCCCCCCCCCCCCCC(=O)NCCO [PEA, palmitoylethanolamide] | comparable reduction in the release of mast cell mediators
2 | COc1ccc2[nH]cc(CCNC(C)=O)c2c1 [melatonin] | comparable reduction in the release of mast cell mediators
